From ChEMBL document CHEMBL5113482, “Discovery of fused benzimidazole-imidazole autophagic flux inhibitors for treatment of triple-negative breast cancer” (Eur J Med Chem, 2022)
Activity calls are given as the source filed them. The rule behind the calls is not given here.

Tests used:
[1] = test system: MDA-MB-231; assay: Antiproliferative activity against human MDA-MB-231 cells assessed as cell growth inhibition measured after 48 hrs by MTT assay; format: functional, cell-based; conditions: MDA-MB-231, 48 h
[2] = molecular target: T1, Nibrin (Homo sapiens) (UniProt O60934); assay: Activation of NBS1 phosphorylation in human MDA-MB-468 cells at 5 to 20 uM measured after 6 to 48 hrs by Western blot analysis; format: cell-based; conditions: filed as activator, dose 5-20 µM, time 6-48 hrs
T1 sequence (whole entry): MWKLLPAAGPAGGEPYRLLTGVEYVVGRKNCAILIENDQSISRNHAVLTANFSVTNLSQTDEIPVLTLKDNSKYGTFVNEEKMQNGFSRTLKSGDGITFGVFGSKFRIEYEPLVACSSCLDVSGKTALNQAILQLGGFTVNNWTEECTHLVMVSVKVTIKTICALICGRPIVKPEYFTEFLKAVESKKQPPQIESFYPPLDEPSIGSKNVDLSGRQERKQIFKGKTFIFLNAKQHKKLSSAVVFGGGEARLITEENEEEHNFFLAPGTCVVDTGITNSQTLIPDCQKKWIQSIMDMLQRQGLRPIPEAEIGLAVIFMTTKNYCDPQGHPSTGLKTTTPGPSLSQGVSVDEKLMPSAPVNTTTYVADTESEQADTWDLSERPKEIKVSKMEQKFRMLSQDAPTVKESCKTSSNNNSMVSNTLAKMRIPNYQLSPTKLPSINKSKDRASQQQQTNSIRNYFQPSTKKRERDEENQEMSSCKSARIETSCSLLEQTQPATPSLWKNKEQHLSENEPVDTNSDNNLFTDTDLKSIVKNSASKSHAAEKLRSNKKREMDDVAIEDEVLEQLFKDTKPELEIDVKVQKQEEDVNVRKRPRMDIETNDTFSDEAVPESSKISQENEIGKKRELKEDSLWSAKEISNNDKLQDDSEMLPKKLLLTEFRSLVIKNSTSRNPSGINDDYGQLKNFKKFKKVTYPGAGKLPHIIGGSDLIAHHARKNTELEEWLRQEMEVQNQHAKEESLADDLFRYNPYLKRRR

[3] = test system: MDA-MB-231; assay: Antiproliferative activity against human MDA-MB-231 cells assessed as reduction in cell count by microscopy; format: functional, cell-based
[4] = test system: MDA-MB-231; assay: Inhibition of autophagic flux in human MDA-MB-231 cells assessed as increase in nuclear p62 expression measured after 48 hrs by immunofluorescence analysis; format: functional, cell-based; conditions: dose 5-20 µM, DDE = dose-dependent effect
[5] = test system: HSC-3; assay: Antiproliferative activity against human HSC-3 cells assessed as cell growth inhibition measured after 48 hrs by MTT assay; format: functional, cell-based; conditions: HSC-3, 48 h
[6] = test system: MDA-MB-231; assay: Antitumor activity against human MDA-MB-231 cells xenografted in ip dosed NOD/SCID mouse assessed as upregulation of gamma-H2AX expression administered at 3 days interval for 24 days and measured on day 25 by Western blot analysis; format: functional, organism-based; conditions: dose 5-15 mg/kg, time 25.0 day, DDE = dose-dependent effect
[7] = test system: MDA-MB-468; assay: Induction of apoptosis in human MDA-MB-468 cells assessed as increase in Bax expression measured after 48 hrs by Western blot analysis; format: functional, cell-based; conditions: dose 5-20 µM, DDE = dose-dependent effect
[8] = test system: MDA-MB-231; assay: Cell cycle arrest in human MDA-MB-231 cells assessed as increase in accumulation at S-phase at 5 to 20 uM measured after 48 hrs by propidium iodide staining based flow cytometry; format: functional; conditions: dose 5-20 µM
[9] = test system: MDA-MB-231; assay: Induction of apoptosis in human MDA-MB-231 cells assessed as reduction in Bcl-2 expression measured after 48 hrs by Western blot analysis; format: functional, cell-based; conditions: dose 5-20 µM, DDE = dose-dependent effect
[10] = test system: MDA-MB-468; assay: Induction of apoptosis in human MDA-MB-468 cells assessed as increase in cleaved caspase-9 expression measured after 48 hrs by Western blot analysis; format: functional, cell-based; conditions: dose 5-20 µM, DDE = dose-dependent effect
[11] = test system: MDA-MB-468; assay: Inhibition of autophagic flux in human MDA-MB-468 cells assessed as increase in nuclear p62 expression measured after 48 hrs by Western blot analysis; format: functional, cell-based; conditions: dose 5-20 µM, DDE = dose-dependent effect
[12] = test system: MDA-MB-231; assay: Cell cycle arrest in human MDA-MB-231 cells assessed as increase in CHK1 phosphorylation at Ser 345 residue measured after 48 hrs by Western blot analysis; format: functional, cell-based; conditions: dose 5-20 µM, DDE = dose-dependent effect
[13] = test system: MDA-MB-231; assay: Inhibition of autophagy in human MDA-MB-231 cells assessed as increase in p62 expression at 5 to 20 uM measured after 48 hrs by Western blot analysis; format: functional, cell-based; conditions: dose 5-20 µM, DDE = dose-dependent effect
[14] = test system: MDA-MB-468; assay: Inhibition of autophagic flux in human MDA-MB-468 cells assessed as increase in cytoplasmic p62 expression measured after 48 hrs by Western blot analysis; format: functional, cell-based; conditions: dose 5-20 µM, DDE = dose-dependent effect
[15] = test system: HeLa; assay: Inhibition of autophagic flux in human HeLa cells expressing mRFP-EGFP-LC3B assessed as blockage of autophagosome-lysosome fusion by measuring accumulation of yellow fluorescent vesicles; format: functional, cell-based
[16] = test system: MDA-MB-468; assay: Inhibition of autophagy in human MDA-MB-468 cells assessed as increase in LC3B-II expression measured after 48 hrs by immunofluorescence analysis; format: functional, cell-based; conditions: dose 5-20 µM
[17] = test system: MDA-MB-231; assay: Induction of apoptosis in human MDA-MB-231 cells assessed as increase in cleaved caspase-9 expression measured after 48 hrs by Western blot analysis; format: functional, cell-based; conditions: dose 5-20 µM, DDE = dose-dependent effect
[18] = test system: MDA-MB-468; assay: Antiproliferative activity against human MDA-MB-468 cells assessed as cell growth inhibition measured after 48 hrs by MTT assay; format: functional, cell-based; conditions: MDA-MB-468, 48 h
[19] = test system: MDA-MB-468; assay: Induction of apoptosis in human MDA-MB-468 cells assessed as increase in Bak expression measured after 48 hrs by Western blot analysis; format: functional, cell-based; conditions: dose 5-20 µM, DDE = dose-dependent effect
[20] = test system: MDA-MB-468; assay: Induction of DNA damage in human MDA-MB-468 cells assessed as increase in gamma-H2AX accumulation measured after 48 hrs by immunofluorescence analysis; format: functional, cell-based
[21] = test system: MDA-MB-231; assay: Induction of apoptosis in human MDA-MB-231 cells assessed as increase in cytochrome c expression measured after 48 hrs by Western blot analysis; format: functional, cell-based; conditions: dose 5-20 µM, DDE = dose-dependent effect
[22] = test system: SW-620; assay: Antiproliferative activity against human SW-620 cells assessed as cell growth inhibition measured after 48 hrs by MTT assay; format: functional, cell-based; conditions: SW-620, 48 h
[23] = test system: MDA-MB-468; assay: Inhibition of autophagy in human MDA-MB-468 cells assessed as increase in p62 expression at 5 to 20 uM measured after 48 hrs by Western blot analysis; format: functional, cell-based; conditions: dose 5-20 µM, DDE = dose-dependent effect
[24] = test system: MDA-MB-468; assay: Induction of apoptosis in human MDA-MB-468 cells assessed as reduction in Bcl-2 expression measured after 48 hrs by Western blot analysis; format: functional, cell-based; conditions: dose 5-20 µM, DDE = dose-dependent effect
[25] = test system: MDA-MB-468; assay: Cell cycle arrest in human MDA-MB-468 cells assessed as increase in accumulation at S-phase at 5 to 20 uM measured after 48 hrs by propidium iodide staining based flow cytometry; format: functional; conditions: dose 5-20 µM
[26] = test system: MDA-MB-468; assay: Inhibition of autophagic flux in human MDA-MB-468 cells assessed as reduction in RNF8 expression at 5 to 20 uM measured after 6 to 48 hrs by Western blot analysis; format: functional, cell-based; conditions: dose 5-20 µM, time 6-48 hrs
[27] = test system: MDA-MB-231; assay: Induction of apoptosis in human MDA-MB-231 cells assessed as increase in late apoptotic cells measured after 48 hrs by Annexin V-FITC/propidium iodide staining based flow cytometry; format: functional, cell-based; conditions: dose 5-20 µM, DDE = dose-dependent effect
[28] = test system: MDA-MB-231; assay: Induction of DNA damage in human MDA-MB-231 cells assessed as reduction in RAD51 expression measured after 6 to 48 hrs by Western blot analysis; format: functional, cell-based; conditions: dose 5-20 µM, time 6-48 hrs, DDE = dose-dependent effect
[29] = test system: MDA-MB-468; assay: Induction of apoptosis in human MDA-MB-468 cells assessed as increase in cleaved PARP expression measured after 48 hrs by Western blot analysis; format: functional, cell-based; conditions: dose 5-20 µM, DDE = dose-dependent effect

O=C(NC1CCCCC1)c1[nH]cnc1-c1nc2ccccc2[nH]1
IC50 [1]: 8.3 µM
Activity [2]: Active
Activity [3]: Active
inhibition [4]: Dde
IC50 [5]: 24 µM
Activity [6]: Dde
Activity [7]: Dde
Activity [8]: Active
Activity [9]: Dde
Activity [10]: Dde
inhibition [11]: Dde
Activity [12]: Dde
inhibition [13]: Dde
inhibition [14]: Dde
inhibition [15]: Active
inhibition [16]: Active
Activity [17]: Dde
IC50 [18]: 6.03 µM
Activity [19]: Dde
Activity [20]: Active
Activity [21]: Dde
IC50 [22]: 25.4 µM
inhibition [23]: Dde
Activity [24]: Dde
Activity [25]: Active
inhibition [26]: Active
Activity [27]: Dde
Activity [28]: Dde
Activity [29]: Dde
